Measurements published in patent publication US5985833A, “Thrombin inhibitor” (Wisconsin Alumni Research Foundation, priority 1996, dated 1999).
“Also recorded” adds a separate entry of the source. Where a SMILES comes first, the peptide text is derived from it. Where no end group is shown, it is not given here. [ ]: non-standard residue; d: D form. sY = N[C@@H](Cc1ccc(OS(=O)(=O)O)cc1)C(=O)O

Key:
thrombin [1] = molecular target: T1, thrombin (Homo sapiens, UniProt P00734); assay: Peptide inhibition of 125I-PPACK-thrombin binding to peak 1 fibrin clot; settings: for IC50 for inhibition of thrombin binding to peak 1 fibrin (in words): non-sulfated γ' peptides containing 416 T→V and 420 S→A substitutions, FIG. 8; for IC50 / inhibition of thrombin binding to peak 1 fibrin (in words): sulfated peptides
T1 construct: PPACK-thrombin was prepared by adding a five-fold molar excess of PPACK (Calbiochem, San Diego, Calif.) to α-thrombin; purchased Enzyme Research Laboratories, Inc., South Bend, Ind
Experimental: To determine the capacity of the peptides to inhibit thrombin binding, a 200 μl clot containing fibrin (0.5 nmoles) and ^125 I-PPACK-thrombin (0.1 nmoles) in 0.05M HEPES, 0.10M NaCl buffer, pH 7.4, and 0.01% (w/v) polyethylene glycol 8000 was formed in the presence of varying concentrations of peptide. The amount of thrombin bound to the clot was determined by counting the ^125 I radioactivity in a gamma counter. […] For most studies, peak 1 fibrin was used to assess the inhibitory capacity of the peptides. Similar qualitative thrombin-binding results were obtained using peak 2 fibrin (FIG. 6), but higher levels of peptide were needed to inhibit binding since this molecule contains the high affinity thrombin-binding site.

thrombin [2] = settings: cited from earlier work
thrombin [3] = molecular target: T1, thrombin; assay: Peptide inhibition of 125I-PPACK-thrombin binding to peak 2 fibrin clot; settings: FIG. 6

| Compound | IC50 for inhibition of thrombin binding to peak 1 fibrin (in words) (thrombin [1]) | IC50 / inhibition of thrombin binding to peak 1 fibrin (in words) (thrombin [1]; FIG. 7) | further results |
| --- | --- | --- | --- |
| AEVEYEALYPEDDL [γ' 414-427 (416V/420A), A E V E Y E A L Y P E D D L] | no significant increases in IC50; also recorded: lowest IC50 |  |  |
| E H P A E T E Y E S L Y P E D D L (EHPAETEYESLYPEDDL) [sulfated γ' 411-427, doubly tyrosine-sulfated native γ' peptide] |  | Even greater inhibitory effects | IC50 / inhibition of thrombin binding to peak 1 fibrin (in words) (thrombin [1]; FIG. 7, listed as γ' 411-472): similar |
| fibrinogen |  |  | Km (thrombin [2]; fibrinogen peptides or fibrinogen itself, read-out: Km estimated from peptide A release): 6 to 11 µM; Kd (thrombin [2]; substrate site, read-out: Kd derived from similar kinetic studies): 1300 to 2600 nM |
| VRPEHPAEVEYEALYPEDDL [γ' 408-427 (416V/420A), VRPEHPAEVEYEALYPEDDL] | no significant increases in IC50 |  |  |
| E H P A E T E F E S L Y P E D D L (EHPAETEFESLYPEDDL) [γ' 411-427/418F, tyrosine at 418 substituted with phenylalanine] |  | increase in IC50 compared with the doubly tyrosine-sulfated peptide; also recorded: lower IC50 than non-sulfated γ' A408-427 |  |
| CC(C)[C@H](NC(=O)[C@H](CCC(=O)O)NC(=O)[C@H](C)NC(=O)[C@@H]1CCCN1C(=O)[C@H](Cc1c[nH]cn1)NC(=O)[C@H](CCC(=O)O)NC(=O)[C@@H]1CCCN1)C(=O)N[C@@H](CCC(=O)O)C(=O)N[C@@H](Cc1ccc(OS(=O)(=O)O)cc1)C(=O)O [γ' 410-418(416V), P E H P A E V E Y] (H-PEHPAEVE[sY]-OH) |  | neither the amino-terminal γ' 410-418(416V) nor the carboxy-terminalγ' 419-427(420A) segment of this peptide had any significant inhibition of thrombin binding |  |
| AVRPEHPAETEYESLYPEDDL (AVRPEHPAETEYESLYPEDDL) [sulfated γ' A408-427] |  | similar | IC50 (thrombin [3]; peak 2 fibrin, tyrosine-sulfated peptides): 14 µM; inhibitory effect on thrombin binding to peak 2 fibrin (in words) (thrombin [3]; sulfated versus non-sulfated peptide): greater inhibitory effect |
| CC(C)C[C@H](NC(=O)[C@H](CC(=O)O)NC(=O)[C@H](CC(=O)O)NC(=O)[C@H](CCC(=O)O)NC(=O)[C@@H]1CCCN1C(=O)[C@H](Cc1ccc(OS(=O)(=O)O)cc1)NC(=O)[C@H](CC(C)C)NC(=O)[C@H](C)NC(=O)[C@@H](N)CCC(=O)O)C(=O)O [γ' 419-427(420A), E A L Y P E D D L] (H-EAL[sY]PEDDL-OH) |  | nor the carboxy-terminalγ' 419-427(420A) segment of this peptide had any significant inhibition of thrombin binding |  |
| PEHPAEVEYEALYPEDDL [γ' 410-427 (416V/420A)] | no significant increases in IC50 |  |  |
| EHPAEVEYEALYPEDDL [γ' 411-427 (416V/420A), E H P A E V E Y E A L Y P E D D L] | no significant increases in IC50 |  |  |
